Among the data in patent US20090297438A1, “Human Monoclonal Antibodies to Prostate Specific Membrane Antigen (PSMA)” (priority 2005, published 2009) are anti-tumor growth efficacy values, retold here.

The subject of the assay is LNCaP human prostate carcinoma xenografts. The assay is described as follows: LNCaP tumor xenografts treated with Taxotere and 7F12 antibody. The conditions noted are these: Taxotere alone, 2 and 4 mg/kg iv. Type of assay: in vivo, male CB17.SCID mice. The method, then:
The anti-tumor efficacy of the anti-PSMA 7F12 antibody in combination with Taxotere® (docetaxel) was tested on LNCaP human prostate carcinoma xenografts grown in male CB17.SCID mice.
LNCaP prostate cancer cells expressing high levels of PSMA were obtained from ATCC (Cat# CRL-1740) and expanded in vitro following ATCC instruction. 8 week-old male CB17.SCID mice from Taconic were implanted subcutaneously in the right flank with 2.5×10^6 LNCaP cells in 0.2 ml of PBS/Matrigel (1:1) per mouse. Mice were weighed and measured for tumor volume using an electronic caliper twice weekly starting three weeks post implantation. Tumor volumes were calculated as height×width×length. Mice with vascularized tumors (determined by the appearance of the tumors) of 180 mm^3 were randomized into treatment group and were dosed per individual body weight on Day 0. Mice were monitored for tumor growth around 60 days post dosing and terminated at the end of the study. Mice were euthanized when the tumors reached tumor end point (1500 mm^3). Taxotere® was dosed at Q3Dx3 intravenously (iv) through the tail vein. Isotype control antibody Rituxan® and the anti-PSMA 7F12 antibody were dosed intraperitoneally (ip) Q3Dx5, followed with Q7Dx6.

In the case of `CC(=O)O[C@@]12CO[C@@H]1C[C@H](O)[C@@]1(C)C(=O)[C@H](O)C3=C(C)[C@@H](OC(=O)[C@H](O)[C@@H](NC(=O)OC(C)(C)C)c4ccccc4)C[C@@](O)([C@@H](OC(=O)c4ccccc4)[C@H]21)C3(C)C` [Taxotere®, docetaxel], the anti-tumor growth efficacy entry is on record as “dose-dependent anti-tumor growth efficacy”.
